Where two headings read alike, the source gives them in different places.

Usually Kd stands for a measure of binding affinity in units of concentration.

The conditions of data set [1]: pH 6.5 and 39° C., estimated from literature-reported pKas.
For data set [2], the target named is T1, IL-1ra (Homo sapiens, UniProt P18510). The conditions noted are these: for reduction in the rate of aggregation of IL-1ra: 10 mM accessory molecule.
Protocol: The rate of aggregation was determined as the slope of the linear region of the saturation curve calculated using the SoftMax Pro program (Molecular Devices).
Data set [3] deals with T1, IL-1ra. Put plainly: Citrate binding to IL-1ra (spin column filtration, HPLC, Scatchard plot).
For data set [4], the target named is T2, anion binding site on IL-1ra (Homo sapiens, UniProt P18510). Kind of data set: biochemical. The conditions noted are these: K^dL, Kd of citrate (y-intercept of K^dLapp plot).
T2 sequence (P18510 with tags, fused parts or gaps): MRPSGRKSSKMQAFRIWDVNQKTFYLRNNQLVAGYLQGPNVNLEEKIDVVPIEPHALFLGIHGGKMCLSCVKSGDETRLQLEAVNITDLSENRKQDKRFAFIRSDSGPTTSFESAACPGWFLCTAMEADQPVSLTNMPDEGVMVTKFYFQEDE
Description: (§1) After spinning, about half of the solution passed through the filter as filtrate, while the remaining solution remained above the filter as retentate.
(§2) K^dL is the Kd for ligand binding to protein and is equal to the concentration of P (free protein) times the concentration of L (free ligand), divided by the concentration of PL (protein bound to ligand). K^dX is the Kd for competitive anion binding to protein and is equal to the concentration of P (free protein) times the concentration of X (free competing anion), divided by concentration of PX (protein bound to competing anion).
(§3) By replacing the (PX) term with (Xfree)(Pfree)/K^dX, which is derived from the equilibrium equation shown above, the expression for K^dLapp can be reduced to: K^dLapp=K^dL[1+(Xfree/K^dX)] Thus, if K^dLapp is plotted versus Xfree, the y-intercept will be equal to K^dL and the slope will be equal to K^dL/K^dX. Rearranging, K^dX will be equal to the y-intercept divided by the slope.
(§4) The concentration of free protein is calculated to be the total concentration of protein in the sample minus the concentration of bound protein (which is equal to the concentration of bound ligand). […] In other words, Xfree=Xtotal−ΔXbound as Xtotal is increased.
Data set [5] has as its target T1, IL-1ra. Kind of data set: Derivatization of IL-1ra with methyl acetyl phosphate (MAP) in various buffers, reverse-phase HPLC. Also noted: additional N-terminal methionine (not a tag proper); host or cells: E. coli (stated for anakinra in the background). The conditions noted are these: for rate of derivatization of IL-1ra with MAP compared with phosphate buffer: pH 6.3, 6.5, 6.7; for rate of derivatization of IL-1ra with MAP in 20 mM compared with 10 mM buffer: pH 6.5. The method, then:
IL-1ra was derivatized with MAP in the presence of citrate or phosphate as follows. […] The reaction was incubated at 37° C. and 25 μl aliquots were taken using an HPLC autosampler at 0, 45, 90, 135, 180, 225, and 270 minutes. Each aliquot was analyzed by reverse-phase HPLC using an Agilent 110 HPLC equipped with a Jupiter 5u C4 300A reverse-phase HPLC column (4.6×250 mm, Phenomenex, Torrance, Calif.), an on-line UV detector and a temperature-controlled 100-well sample tray set at 37° C. The flow rate was set at 1 ml/min and the column was maintained at a temperature of 50° C. The column was pre-equilibrated for 15 min (flow rate 1 ml/min) with 65% buffer A (0.1% trifluoroacetic acid (TFA) in water) and 35% buffer B (90% acetonitrile, 0.1% TFA in water). After loading, the analytes were eluted using a gradient ramping from 35% to 50% buffer B (90% acetonitrile, 0.1% TFA in water) over 25 minutes.
The reaction was incubated at 37° C. and 25 μl aliquots were taken using an HPLC autosampler at 0, 45, 90, 135, 180, 225, and 270 minutes. Each aliquot was analyzed by reverse-phase HPLC as described above for derivatization in the presence of citrate.
The reaction was incubated at 37° C. and 25 μl aliquots were taken using an HPLC autosampler at 0, 45, 90, 135, 180, 225, and 270 minutes. Each aliquot was analyzed by reverse-phase HPLC as described above for derivatization in the presence of citrate. […] Four weakly resolved peaks were identified in this experiment and are indicated on FIG. 15.
In particular, each chromatogram from FIG. 16A was deconvoluted using PeakFit™ (Systat Software Inc.). The area under the each of the deconvoluted peaks (peaks 1-4) at each time point (0, 45, 90, 135, 180, 225, and 270 minutes) was then integrated. Deconvoluted peaks 1-4 are labeled on FIG. 16B and the integrated area under each one is shown below. […] The integrated area of deconvoluted peak 4 at time points 0, 45, 90, 135, 180 minutes was then plotted against the incubation time of the reaction that produced that peak. The resulting line has a slope of 68.931 hour^−1.
The rate of derivatization of IL-1ra with MAP was then calculated for various experiments in the presence of various buffers and at various pHs, according to the methods discussed above.

For data set [6] the following is noted: pH 6.5 and 39° C.; cited from earlier work.
Data set [7] addresses T2, anion binding site on IL-1ra. The settings on record: for Kd: read-out: K^dX, Kd for competing anion binding to the anion binding site of IL-1ra, competition with 10 mM citrate, 1 mM IL-1ra, pH 6.5, 70 mM NaCl.
Description: as §1, §2, §3, §4
Setting [8] is: pH 6.5, 29° C., IL-1ra 140 mg/ml.

T1 sequence (P18510 with tags, fused parts or gaps): as above

For `O=C(O)CC(O)(CC(=O)O)C(=O)O` [citrate], the predicted negative charges entry in data set [1] was “three negative charges”. Besides, in data set [2] (setting [8]), the “reduction in the rate of aggregation of IL-1ra” value (from here on “reduction … of IL-1ra”) is recorded as about 90%. In addition, the dissociation constant (Kd) in data set [3] is 3.85 mM; in data set [4] (phosphate competition experiment, data not shown), 5 mM; in data set [4] (pyrophosphate competition experiment), 3.89 mM. In data set [3] (pH 6.5, 70 mM NaCl), the “number of binding sites on IL-1ra (x-intercept of Scatchard plot)” value is 0.94. In addition, the “rate of derivatization of IL-1ra with MAP compared with phosphate buffer” value in data set [5] was “slower”. In addition, the “rate of derivatization of IL-1ra with MAP in 20 mM compared with 10 mM buffer” value in data set [5] was “slower”.

Regarding `O=P(O)(O)OP(=O)(O)O` [pyrophosphate], the predicted negative charges entry in data set [1] was “between two and three negative charges”. In data set [2] (setting [8]), the “reduction … of IL-1ra” value was about 90% and the “concentration at which the reduction in the rate of aggregation leveled off” value came out at 20 mM. Besides, in data set [2] (1 to 125 mM, 29° C.), the “rate of aggregation of IL-1ra with increasing anion concentration, compared with phosphate buffer” value is given as “decreased more rapidly”. Moreover, in data set [6], the “estimated pKa, first ionizable hydrogen” value is given as 0.83; the “estimated pKa, fourth ionizable hydrogen” value was 9.46; the “estimated pKa, second ionizable hydrogen” value is 2.26; the “estimated pKa, third ionizable hydrogen” value was 6.72. In addition, in data set [7] (0-20 mM competing anion, 10 mM citrate), the “competing with citrate for the citrate binding site on IL-1ra, compared with phosphate” value is listed as “more effective”. Moreover, the Kd in data set [7] stood at 2.99 mM. In addition, in data set [5], the “rate of derivatization of IL-1ra with MAP compared with phosphate buffer” value is on record as “slower” and the “rate of derivatization of IL-1ra with MAP in 20 mM compared with 10 mM buffer” value is “slower”.

For “IL-1ra: Purified human recombinant interleukin-1 receptor antagonist having the amino acid sequence of SEQ ID NO: 5 (anakinra)”, the “rate of derivatization of IL-1ra with MAP (slope of integrated area of deconvoluted peak 4 versus incubation time)” value in data set [5] (10 mM citrate, pH 6.5, 37° C., time points 0-180 minutes) came to 68.931 h⁻¹.

As to phosphate, the predicted negative charges entry in data set [1] is given as “predominantly one negative charge”. Besides, the “reduction … of IL-1ra” value in data set [2] (setting [8]) is about 20%. For the same molecule, the Kd in data set [7] was 12.6 mM. The “level of derivatization with MAP at all positions except the N-terminal amine, compared with citrate or pyrophosphate” value in data set [5] (10 mM buffer, 270 minutes, 37° C.) is “greater”. The “extent of derivatization of IL-1ra with MAP compared with citrate” value in data set [5] (10 mM buffer, pH 6.3, 6.5 or 6.7, 5.5 hours) is “greater extent”.

The values above are taken from patent US10765747B2 (SWEDISH ORPHAN BIOVITRUM AB (PUBL), priority 2004, dated 2020).
